# Experimental data: ChEMBL document CHEMBL1133475, “Inhibitors of NF-kappaB and AP-1 gene expression: SAR studies on the pyrimidine portion of 2-chloro-4-trifluoromethylpyrimidine-5-[N-(3', 5'-bis(trifluoromethyl)phenyl)carboxamide]” (J Med Chem, 2000)
# Organism: Homo sapiens
# Assay: Compound was tested for permeability in Caco-2 cells by HPLC method
# Format: ADME, cell-based
row,Permeability,SMILES
1,2.1 ×10⁻⁶ cm/s,O=C(Nc1cc(C(F)(F)F)cc(C(F)(F)F)c1)c1cnc(Cl)nc1-c1cccs1
2,1.9 ×10⁻⁶ cm/s,O=C(Nc1cc(C(F)(F)F)cc(C(F)(F)F)c1)c1cnc(F)nc1C(F)(F)F
3,6.2 ×10⁻⁶ cm/s,Cc1nc(Cl)ncc1C(=O)Nc1cc(C(F)(F)F)cc(C(F)(F)F)c1
4,3.1 ×10⁻⁶ cm/s,CCCc1nc(Cl)ncc1C(=O)Nc1cc(C(F)(F)F)cc(C(F)(F)F)c1
5,1.1 ×10⁻⁶ cm/s,O=C(Nc1cc(C(F)(F)F)cc(C(F)(F)F)c1)c1cnc(Cl)nc1C(F)(F)F
6,6.1 ×10⁻⁶ cm/s,O=C(Nc1cc(C(F)(F)F)cc(C(F)(F)F)c1)c1cnc(Cl)nc1
7,5.8 ×10⁻⁶ cm/s,CCc1nc(Cl)ncc1C(=O)Nc1cc(C(F)(F)F)cc(C(F)(F)F)c1
8,3.1 ×10⁻⁶ cm/s,O=C(Nc1cc(C(F)(F)F)cc(C(F)(F)F)c1)c1cnc(Cl)nc1Cl
9,0.9 ×10⁻⁶ cm/s,O=C(Nc1cc(C(F)(F)F)cc(C(F)(F)F)c1)c1cnc(Cl)nc1C(F)(F)C(F)(F)F
10,0.9 ×10⁻⁶ cm/s,O=C(Nc1cc(C(F)(F)F)cc(C(F)(F)F)c1)c1cnc(Cl)nc1-c1ccccc1
